# According to ChEMBL document CHEMBL5620419, “Discovery of new Lenalidomide derivatives as potent and selective GSPT1 degraders” (Eur J Med Chem, 2023):
# Calls of active or inactive are those of the source. The calls are words filed in the database; no cut-off is given here.
# Tests used:
# [1] = Downregulation of SRP72 level in human U-937 cells assessed as fold change at 0.1 uM measured after 6 hrs; format: functional
# U-937 [2] = test: Induction of apoptosis in human U-937 cells assessed as viable cells at 10 nM measured after 24 hr by Annexin V-FITC/7AAD staining based flow cytometry (reference value: 93.55%); format: functional; settings: read-out: Activity
# U-937 [3] = test: Induction of cell cycle arrest in human U-937 cells assessed as accumulation of cells at G0/G1 phase at 10 nM measured after 24 hrs by propidium iodide staining based flow cytometry analysis (reference value: 61.09%); format: functional
# [4] = biological target: Cereblon/Ikaros (Homo sapiens) (UniProt Q96SW2+Q13422); test: PROTAC activity at CRBN/IKZF1 in human U-937 cells at upto 300 nM by Western blot analysis; format: cell-based
# [5] = biological target: T1, Protein cereblon/Eukaryotic peptide chain release factor GTP-binding subunit ERF3A (Homo sapiens) (UniProt Q96SW2+P15170); test: PROTAC activity at CRBN/GSPT1 in human MV4-11 cells assessed as degradation of GSPT1 at upto 300 nM by Western blot analysis; format: cell-based
# T1 sequence (P15170 whole entry, looked up): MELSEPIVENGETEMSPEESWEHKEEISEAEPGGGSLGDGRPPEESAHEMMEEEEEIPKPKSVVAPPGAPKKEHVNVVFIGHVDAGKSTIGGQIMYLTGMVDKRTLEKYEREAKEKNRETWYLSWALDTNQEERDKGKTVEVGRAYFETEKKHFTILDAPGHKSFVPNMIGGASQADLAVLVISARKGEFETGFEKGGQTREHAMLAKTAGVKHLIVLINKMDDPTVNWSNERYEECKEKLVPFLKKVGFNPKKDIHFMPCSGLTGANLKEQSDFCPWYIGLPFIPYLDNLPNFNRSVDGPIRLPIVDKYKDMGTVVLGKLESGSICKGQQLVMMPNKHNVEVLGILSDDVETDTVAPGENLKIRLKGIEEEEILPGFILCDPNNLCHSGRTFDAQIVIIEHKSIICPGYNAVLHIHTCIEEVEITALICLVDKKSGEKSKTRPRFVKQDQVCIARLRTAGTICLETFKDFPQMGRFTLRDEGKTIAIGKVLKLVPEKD
# T1 sequence (Q96SW2 whole entry, looked up): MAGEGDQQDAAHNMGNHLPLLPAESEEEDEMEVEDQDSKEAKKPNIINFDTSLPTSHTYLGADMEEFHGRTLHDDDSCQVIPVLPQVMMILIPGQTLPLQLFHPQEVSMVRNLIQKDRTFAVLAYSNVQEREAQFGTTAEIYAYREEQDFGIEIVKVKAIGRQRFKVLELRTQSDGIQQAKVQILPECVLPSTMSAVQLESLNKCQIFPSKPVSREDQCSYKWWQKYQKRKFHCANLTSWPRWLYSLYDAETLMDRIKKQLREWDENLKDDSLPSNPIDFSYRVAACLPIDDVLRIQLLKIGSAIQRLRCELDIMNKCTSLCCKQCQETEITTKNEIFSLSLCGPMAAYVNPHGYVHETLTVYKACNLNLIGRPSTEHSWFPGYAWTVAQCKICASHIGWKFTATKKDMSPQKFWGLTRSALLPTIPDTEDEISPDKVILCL
# U-937 [6] = test: Induction of cell cycle arrest in human U-937 cells assessed as accumulation of cells at G2/M phase at 100 nM measured after 24 hrs by propidium iodide staining based flow cytometry analysis (reference value: 32.33%); format: functional
# U-937 [7] = test: Induction of apoptosis in human U-937 cells assessed as early apoptotic cells at 30 nM measured after 24 hr by Annexin V-FITC/7AAD staining based flow cytometry (reference value: 1.44%); format: functional
# U-937 [8] = test: Upregulation of caspase-9 level in human U-937 cells measured after 24 hrs by Western blot analysis; format: functional, cell-based; settings: dose 10-100 nM
# U-937 [9] = test: Induction of cell cycle arrest in human U-937 cells assessed as accumulation of cells at G0/G1 phase at 100 nM measured after 24 hrs by propidium iodide staining based flow cytometry analysis (reference value: 61.09%); format: functional
# [10] = AUC (0 to t) in ip dosed Sprague-Dawley rat; format: ADME, organism-based; settings: in vivo
# [11] = Downregulation of K2C1 level in human U-937 cells assessed as fold change at 0.1 uM measured after 6 hrs; format: functional
# [12] = biological target: T1, Protein cereblon/Eukaryotic peptide chain release factor GTP-binding subunit ERF3A (Homo sapiens); test: PROTAC activity at CRBN/GSPT1 in human U-937 cells assessed as degradation of GSPT1 at 300 nM measured after 6 hrs by Western blot analysis relative to control; format: cell-based
# [13] = Downregulation of AIMP2 level in human U-937 cells assessed as fold change at 0.1 uM measured after 6 hrs; format: functional
# [14] = Cmax in oral dosed Sprague-Dawley rat; format: ADME, organism-based; settings: in vivo
# [15] = Downregulation of K1C10 level in human U-937 cells assessed as fold change at 0.1 uM measured after 6 hrs; format: functional
# [16] = biological target: Cereblon/Casein kinase I alpha (Homo sapiens) (UniProt P48729+Q96SW2); test: PROTAC activity at CRBN/CK1alpha in human U-937 cells at upto 300 nM by Western blot analysis; format: cell-based
# Sequence of Cereblon/Casein kinase I alpha (Homo sapiens) (P48729 2-337 limits assumed): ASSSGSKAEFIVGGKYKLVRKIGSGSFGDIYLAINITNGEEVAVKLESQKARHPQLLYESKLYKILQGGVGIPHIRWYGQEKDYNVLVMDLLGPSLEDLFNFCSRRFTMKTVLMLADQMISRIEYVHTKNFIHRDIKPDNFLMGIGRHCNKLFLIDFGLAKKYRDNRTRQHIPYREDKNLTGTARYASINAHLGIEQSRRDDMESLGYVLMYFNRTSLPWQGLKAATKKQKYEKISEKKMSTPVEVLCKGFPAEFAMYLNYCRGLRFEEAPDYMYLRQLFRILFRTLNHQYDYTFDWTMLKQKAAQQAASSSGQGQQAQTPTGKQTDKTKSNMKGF
# Sequence of Cereblon/Casein kinase I alpha (Homo sapiens) (Q96SW2 whole entry partner): as the sequence (Q96SW2 whole entry, looked up) above
# [17] = Downregulation of SEC13 level in human U-937 cells assessed as fold change at 0.1 uM measured after 6 hrs; format: functional
# [18] = Downregulation of TIM9 level in human U-937 cells assessed as fold change at 0.1 uM measured after 6 hrs; format: functional
# [19] = Cmax in ip dosed Sprague-Dawley rat; format: ADME, organism-based; settings: in vivo
# U-937 [20] = test: Upregulation of cleaved caspase-3 level in human U-937 cells measured after 24 hrs by Western blot analysis; format: functional, cell-based; settings: dose 10-100 nM
# U-937 [21] = test: Induction of apoptosis in human U-937 cells assessed as late apoptotic cells at 10 nM measured after 24 hr by Annexin V-FITC/7AAD staining based flow cytometry (reference value: 1.49%); format: functional
# U-937 [22] = test: Induction of cell cycle arrest in human U-937 cells assessed as accumulation of cells at G0/G1 phase at 30 nM measured after 24 hrs by propidium iodide staining based flow cytometry analysis (reference value: 61.09%); format: functional
# U-937 [23] = test: Induction of apoptosis in human U-937 cells assessed as necrotic cells at 10 nM measured after 24 hr by Annexin V-FITC/7AAD staining based flow cytometry (reference value: 3.52%); format: functional
# U-937 [24] = test: Induction of apoptosis in human U-937 cells assessed as early apoptotic cells at 10 nM measured after 24 hr by Annexin V-FITC/7AAD staining based flow cytometry (reference value: 1.44%); format: functional
# U-937 [25] = test: Induction of apoptosis in human U-937 cells assessed as late apoptotic cells at 30 nM measured after 24 hr by Annexin V-FITC/7AAD staining based flow cytometry (reference value: 1.49%); format: functional
# U-937 [26] = test: Induction of apoptosis in human U-937 cells assessed as early apoptotic cells at 100 nM measured after 24 hr by Annexin V-FITC/7AAD staining based flow cytometry (reference value: 1.44%); format: functional
# [27] = biological target: T1, Protein cereblon/Eukaryotic peptide chain release factor GTP-binding subunit ERF3A (Homo sapiens); test: PROTAC activity at CRBN/GSPT1 in human U-937 cells assessed as half life measured upto 24 hrs in presence of cycloheximide by Western blot analysis; format: cell-based
# U-937 [28] = test: Induction of cell cycle arrest in human U-937 cells assessed as accumulation of cells at S phase at 30 nM measured after 24 hrs by propidium iodide staining based flow cytometry analysis (reference value: 6.38%); format: functional
# [29] = Downregulation of RNT2 level in human U-937 cells assessed as fold change at 0.1 uM measured after 6 hrs; format: functional
# U-937 [30] = test: Induction of apoptosis in human U-937 cells assessed as necrotic cells at 100 nM measured after 24 hr by Annexin V-FITC/7AAD staining based flow cytometry (reference value: 3.52%); format: functional
# U-937 [31] = test: Downregulation of cyclin B1 level in human U-937 cells measured after 24 hrs by Western blot analysis; format: functional, cell-based; settings: dose 10-100 nM
# U-937 [32] = test: Antiproliferative activity against human U-937 cells measured after 72 hrs by CCK-8 method; format: functional, cell-based; settings: U-937, 72 h
# U-937 [33] = test: Induction of cell cycle arrest in human U-937 cells assessed as accumulation of cells at S phase at 10 nM measured after 24 hrs by propidium iodide staining based flow cytometry analysis (reference value: 6.38%); format: functional
# U-937 [34] = test: Induction of apoptosis in human U-937 cells assessed as viable cells at 100 nM measured after 24 hr by Annexin V-FITC/7AAD staining based flow cytometry (reference value: 93.55%); format: functional; settings: read-out: Activity
# U-937 [35] = test: Downregulation of CDK6 level in human U-937 cells measured after 24 hrs by Western blot analysis; format: functional, cell-based; settings: dose 10-100 nM
# U-937 [36] = test: Induction of cell cycle arrest in human U-937 cells assessed as accumulation of cells at G2/M phase at 10 nM measured after 24 hrs by propidium iodide staining based flow cytometry analysis (reference value: 32.33%); format: functional
# U-937 [37] = test: Induction of apoptosis in human U-937 cells assessed as viable cells at 30 nM measured after 24 hr by Annexin V-FITC/7AAD staining based flow cytometry (reference value: 93.55%); format: functional; settings: read-out: Activity
# U-937 [38] = test: Induction of cell cycle arrest in human U-937 cells assessed as accumulation of cells at G2/M phase at 30 nM measured after 24 hrs by propidium iodide staining based flow cytometry analysis (reference value: 32.33%); format: functional
smiles,measurement,setting,value
COCCN(C)Cc1cc(NC(=O)CCc2ccc3c(c2)C(=O)N(C2CCC(=O)NC2=O)C3)cc(Cl)c1C (stereo not drawn),log(activity),[1],-3.32
same,viability at 0.01 µM,U-937 [2],93.2%
same,Activity,U-937 [3],50.22%
same,Activity,[4],inactive
same,Activity,[5],Active
same,Activity,U-937 [6],20.68%
same,Activity,U-937 [7],14.2%
same,Activity,U-937 [8],Dose-Dependent Effect
same,Activity,U-937 [9],71.09%
same,AUC(0-t),[10],8160 ng·h/mL
same,log(activity),[11],-5.03
same,Emax,[12],81.7%
same,log(activity),[13],-3.32
same,Cmax,[14],671 ng/mL
same,log(activity),[15],-9.04
same,Activity,[16],inactive
same,log(activity),[17],-3.32
same,log(activity),[18],-3.32
same,Cmax,[19],4270 ng/mL
same,Activity,U-937 [20],Dose-Dependent Effect
same,Activity,U-937 [21],2.34%
same,Activity,U-937 [22],63.89%
same,Activity,U-937 [23],2.73%
same,Activity,U-937 [24],1.9%
same,Activity,U-937 [25],14.45%
same,Activity,U-937 [26],23.01%
same,T1/2,[27],6.3 h
same,Activity,U-937 [28],9.99%
same,log(activity),[29],-3.36
same,Activity,U-937 [30],5.5%
same,Activity,U-937 [31],Dose-Dependent Effect
same,IC50,U-937 [32],19 nM
same,Activity,U-937 [33],8.87%
same,viability at 0.1 µM,U-937 [34],44.9%
same,Activity,U-937 [35],Dose-Dependent Effect
same,Activity,U-937 [36],31.72%
same,viability at 0.03 µM,U-937 [37],65.5%
same,Activity,U-937 [38],26.07%
